Laboratory results: patent US11679165B2, “Alkenyl substituted 2,5-piperazinediones, compositions, and uses thereof” (Massachusetts Institute of Technology, priority 2015, dated 2023)

Columns and labels:
[1] = test system: human Erythropoietin (EPO); test: Serum EPO after intravenous injection of EPO mRNA loaded LNPs (ELISA); format: in vivo, mice; details: for serum EPO concentration: 0.75 mg/kg intravenous, C57BL/6 mice, six hours (FIG. 2); for Average EPO: serum EPO, mean±SD (n=3), 6 hr after 0.75 mg/kg intravenous injection into mice, lipid formulated as EPO mRNA LNP
Description: Compounds OF-00 through OF-03 were then formulated with human erythropoietin (EPO) mRNA, cholesterol, 1,2-dioleoyl-sn-glycero-3-phosphoethanolamine, and C14-PEG-2000 in accordance with previously optimized formulation parameters for mRNA delivery. See, e.g., A. Amirouche et al., Human molecular genetics 2013, 22, 3093-3111. […] Additionally, cKK-E12 is capable of silencing Factor VII expression in mice at siRNA doses as low as 0.002 mg/kg, and as such it represents a benchmark ionizable lipid in the field of nucleic acid delivery. The nanoparticle diameters, polydispersity indices, and encapsulation efficiencies for each of these five formulations is provided in Table 1. Serum EPO concentrations are reported as mean±SD (n=3) 6 hr after a 0.75 mg/kg dose intravenous injection into mice. Encapsulation efficiencies, LNP diameter, and PDI were collected as described above for each representative LNP formulation.
Each resultant mRNA loaded LNP was then injected intravenously at a 0.75 mg/kg dose in C57BL/6 mice alongside phosphate buffered saline (PBS) as a negative control. At six hours, the serum EPO levels were quantified (FIG. 2). The PBS control imparted no significant EPO production in vivo, whereas positive control cKK-E12 LNPs promoted a serum EPO concentration of 7050 ng/mL. […] Additionally, OF-02 outperformed two other benchmark ionizable lipids from the siRNA delivery field, namely 503-013 (See, e.g, J. McClellan, M. C. King, Cell 2010, 141, 210-217; Whitehead et al., Nature Communications (2014) 5:4277) and C12-200 (K. T. Love et al., Proceedings of the National Academy of Sciences of the United States of America 2010, 107, 1864-1869). These two compounds represent the leads in their respective ionizable lipid classes of acrylate esters and amino alcohols, and promoted respective EPO concentrations of 2836 ng/mL and 7065 ng/mL at an identical dose.
General Lipid Nanoparticle (LNP) Synthesis. The organic phase was prepared by solubilizing with ethanol a mixture of ionizable lipid, 1,2-dioleoyl-sn-glycero-3-phosphoethanolamine (DOPE, Avanti), cholesterol (Sigma), and 1,2-dimyristoyl-sn-glycero-3-phosphoethanolamine-N-[methoxy(polyethyleneglycol)-2000] (ammonium salt) (C14-PEG 2000, Avanti) at a molar ratio of 35:16:46.5:2.5 and ionizable lipid:mRNA weight ratio of 10:1 in accordance with previously optimized formulation parameters for mRNA delivery. The aqueous phase was prepared in 10 mM citrate buffer (pH 3) with either EPO mRNA (human Erythropoietin mRNA, courtesy of Shire Pharmaceuticals, Cambridge, Mass.) or Luc mRNA (Firefly luciferase mRNA, Shire). The ethanol and aqueous phases were mixed at a 3:1 ratio in a microfluidic chip device (ref Delai's paper) using syringe pumps as previously described at a final mRNA concentration of 0.1 mg/mL. See, e.g., Chen et al., J. Am. Chem. Soc. (2012) 134:6948. Resultant LNPs were dialyzed against PBS in a 20,000 MWCO cassette at 4° C. for 2 hours.
(§1) Animal Experiments. […] Luminescence was quantified using LivingImage software (Perkin Elmer).

mice = test: Mortality and weight change of mice treated with mRNA LNPs; details: all doses studied
Description: FIG. 7 depicts the percent weight gain for cKK-E12 and OF-02 mRNA LNPs reported as mean SD (n=3) 24 hours after respective intravenous dose into mice.
Animal Experiments. […] LNPs were intraveneously injected in female C57BL/6 mice (Charles River Labs, 18-22 grams) via the tail vein. After six or 24 hours, blood was collected via the tail vein and serum was isolated by centrifugation in serum separation tubes. Serum EPO levels were quantified with an ELISA assay (Human Erythropoietin Quantikine IVD ELISA Kit, R&D Systems, Minneapolis, Md.). 24 hours after injection of Luc-mRNA LNPs, mice were injected intraperitoneally with 130 μL of D-luciferin (30 mg/mL in PBS). After fifteen minutes, mice were sacrificed and the organs were isolated (pancreas, spleen, liver, kidneys, lungs, heart, uterus and ovaries) and imaged with an IVIS imaging system (Perkin Elmer, Waltham, Mass.). Luminescence was quantified using LivingImage software (Perkin Elmer).

[2] = LNP diameter and polydispersity by dynamic light scattering; format: physicochemical; details: for LNP Diameter: largest intensity mean peak average
Description: (§2) General Lipid Nanoparticle (LNP) Synthesis. […] The ethanol and aqueous phases were mixed at a 3:1 ratio in a microfluidic chip device (ref […] paper) using syringe pumps as previously described at a final mRNA concentration of 0.1 mg/mL. See, e.g., Chen et al., J. Am. Chem. Soc. (2012) 134:6948. Resultant LNPs were dialyzed against PBS in a 20,000 MWCO cassette at 4° C. for 2 hours. LNP Characterization. To calculate the mRNA encapsulation efficiency, a modified Quant-iT RiboGreen RNA assay (Invitrogen) was used as previously described. See, […] al., J. Controlled Release (2005) 107:276-287. The diameter and polydispersity (PDI) of the LNPs were measured using dynamic light scattering (ZetaPALS, Brookhaven Instruments). LNP diameters are reported as the largest intensity mean peak average, which constituted >95% of the nanoparticles present in the sample.

[3] = mRNA encapsulation efficiency, modified Quant-iT RiboGreen RNA assay; format: physicochemical; details: EPO mRNA LNP formulation of the ionizable lipid
Description: as §2

luciferase = test system: luciferase; design: species or system mice; details: mouse, in vivo
Description: We were interested to determine if the efficacy differences observed between ckk-E12 and OF-02 LNPs were due to variations in biodistribution. mRNA coding for luciferase was independently formulated with both ckk-E12 and OF-02 in the same fashion as for EPO delivery, and mouse organs were harvested 24 hours post injection. […] Since more than 4000 human diseases are caused by liver genetic disorders such as hemophilias A and B, OF-02 LNPs represent a promising delivery vehicle for therapeutic mRNA delivery to the liver. See, e.g., J. McClellan et al., Cell 2010, 142, 353-355.
as §1

Factor VII = details: mice, siRNA delivery; cited from earlier work

Structure (SMILES) | serum EPO concentration [1] [ng/mL] | animal mortality (mice) | PDI [2] | LNP Diameter [2] [nm] | dose response behaviour of EPO production ([1]; 0.75 to 2.25 mg/kg EPO mRNA (FIG. 3B)) | Average EPO [1] [ng/mL] | Encapsulation Efficiency [3] [%] | organ of luciferase mRNA translation (total luminescence per organ) (luciferase) | siRNA dose at which Factor VII expression is silenced (Factor VII) [µg/kg]
CCCCCCCCCCC(O)CN(CCN1CCN(CCN(CC(O)CCCCCCCCCC)CC(O)CCCCCCCCCC)CC1)CCN(CC(O)CCCCCCCCCC)CC(O)CCCCCCCCCC (stereo not drawn) [Compound C12-200] | 7065 |  |  |  |  |  |  |  | 
CCCCCCCCCCC(O)CN(CCCCC1NC(=O)C(CCCCN(CC(O)CCCCCCCCCC)CC(O)CCCCCCCCCC)NC1=O)CC(O)CCCCCCCCCC (stereo not drawn) [cKK-E12] | 7050 | no animal mortality was observed | 0.217 | 83 | linear fashion with respect to dose | 7100 ± 700 | 54 | predominantly translated in the liver | 2
CC/C=C\C/C=C\C/C=C\CC(O)CN(CCCCC1NC(=O)C(CCCCN(CC(O)C/C=C\C/C=C\C/C=C\CC)CC(O)C/C=C\C/C=C\C/C=C\CC)NC1=O)CC(O)C/C=C\C/C=C\C/C=C\CC (stereo not drawn) [OF-03] |  |  | 0.239 | 75 |  | 140 ± 3 | 76 |  | 
CCCCCCCCCCCCCOC(=O)CCN(CCC(=O)OCCCCCCCCCCCCC)CCN(C)CCCN(C)CCN(CCC(=O)OCCCCCCCCCCCCC)CCC(=O)OCCCCCCCCCCCCC [Compound 503-013] | 2836 |  |  |  |  |  |  |  | 
